Counter-ions that a name gives are not always drawn.
Molecular target: T1, human GHS-R1a (Homo sapiens, UniProt Q92847)
T1 construct: expressed in transfected cells
Test: Agonistic activity by use of a cell line stably expressing human GHS-R1a (intracellular calcium increase)
Format: cell-based
Details: hGHS-R1a/CHO cells, percent increase in intracellular calcium vs 100 nM ghrelin; read-out: GHS-R agonistic activity (EC50: nM)
Method: CHO-K1 cells were transfected with human GHS-R1a genes, to thereby provide cells stably expressing GHS-R1a (hGHS-R1a/CHO), and the agonistic activity of each compound was evaluated by use of the cells based on percent increase in intracellular calcium as an index.
The hGHS-R1a/CHO cells were inoculated at 6×10^4 cells/well in a 96-well plate (Clear bottom/Black plate, product of Corning), and cultured in Ham's F12 medium containing 10% fetal bovine serum at 37° C. and 5% CO2 for 18 hours. After culture, the medium was removed, and then the hGHS-R1a/CHO cells were cultured for two hours in a Hanks' balanced salt solution/HEPES (HBSS/HEPES, 100 μL) containing a calcium fluorescent indicator (4 μM Fluo-3AM, product of Dojin), 2 mM Probenecid, 0.1% Pluronic F-127, and 0.1% BSA, whereby the indicator was incorporated into the cells. After washing the cells, HBSS/HEPES (175 μL/well) containing 2 mM Probenecid and 0.1% BSA was added to the plate, and the fluorescence before and after addition of each test compound was determined by means of FLEXstation (Ex: 485 nm, Em: 525 nm, product of Molecular Devices). Each test compound was multi-fold diluted with dimethyl sulfoxide and then diluted with HBSS/HEPES containing 2 mM Probenecid, 0.04% Pluronic F-127, and 0.1% BSA, to thereby attain a final concentration of interest. The thus-diluted solution (25 μL/well) was added to the wells.
Agonistic activity(%)=(A−B)/(C−D)×100
A: Fluorescence intensity after addition of test compound
B: Fluorescence intensity before addition of test compound
C: Fluorescence intensity after addition of 100 nM ghrelin
D: Fluorescence intensity before addition of ghrelin

T1 sequence (Q92847 whole entry): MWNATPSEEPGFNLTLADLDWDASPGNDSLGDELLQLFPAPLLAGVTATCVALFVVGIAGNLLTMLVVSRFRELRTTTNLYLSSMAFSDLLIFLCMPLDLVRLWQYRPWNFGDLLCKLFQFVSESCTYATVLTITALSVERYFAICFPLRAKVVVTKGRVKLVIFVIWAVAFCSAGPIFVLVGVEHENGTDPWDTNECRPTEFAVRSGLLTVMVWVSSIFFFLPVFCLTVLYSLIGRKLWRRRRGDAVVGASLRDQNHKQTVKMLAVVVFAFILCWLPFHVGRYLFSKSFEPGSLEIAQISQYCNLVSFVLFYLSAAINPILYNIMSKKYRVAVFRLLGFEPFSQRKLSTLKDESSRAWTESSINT

Compound | EC50
CC(C)C[C@@H](NC(=O)C(C)(C)N)C(=O)NC1Cc2ccccc2N(Cc2ccccc2)C1=O (stereo partly drawn) [Comp. Ex. 1, (2R)-2-(2-Amino-2-methylpropanamido)-N-(1-benzyl-2-oxo-1,2,3,4-tetrahydroquinolin-3-yl)-4-methylpentanamide hydrochloride, reference compound] | 149 nM
CC(C)C[C@@H](NC(=O)[C@H](C)N)C(=O)NC1Cc2cccc(N3CCCC3=O)c2N(Cc2ccsc2)C1=O (stereo partly drawn) [Example 25h, (2R)-2-((S)-2-aminopropanamido)-4-methyl-N-[2-oxo-8-(2-oxopyrrolidin-1-yl)-1-(thiophen-3-ylmethyl)-1,2,3,4-tetrahydroquinolin-3-yl]pentanamide] | 6.13 nM
CC[C@](C)(N)C(=O)N[C@H](CC(C)C)C(=O)NC1Cc2cccc(N3CCCC3=O)c2N(Cc2ccsc2)C1=O (stereo partly drawn) [Example 25j, (2R)-2-((S)-2-amino-2-methylbutanamido)-4-methyl-N-[2-oxo-8-(2-oxopyrrolidin-1-yl)-1-(thiophen-3-ylmethyl)-1,2,3,4-tetrahydroquinolin-3-yl]pentanamide] | 4.13 nM
CC(C)(N)C(=O)N[C@H](Cc1c[nH]c2ccccc12)C(=O)NC1Cc2cccc(N3CCCC3=O)c2N(Cc2ccsc2)C1=O (stereo partly drawn) [Example 25l, N-[(2R)-3-(1H-indol-3-yl)-1-oxo-1-[2-oxo-8-(2-oxopyrrolidin-1-yl)-1-(thiophen-3-ylmethyl)-1,2,3,4-tetrahydroquinolin-3-ylamino]propan-2-yl]-2-amino-2-methylpropanamide] | < 0.1 nM
Cn1cc(C[C@@H](NC(=O)C(C)(C)N)C(=O)NC2Cc3cccc(N4CCCC4=O)c3N(Cc3ccsc3)C2=O)c2ccccc21 (stereo partly drawn) [Example 34b, 2-amino-2-methyl-N-[(2R)-3-(1-methyl-1H-indol-3-yl)-1-oxo-1-[2-oxo-8-(2-oxopyrrolidin-1-yl)-1-(thiophen-3-ylmethyl)-1,2,3,4-tetrahydroquinolin-3-ylamino]propan-2-yl]propanamide hydrochloride] | 0.052 nM
CCn1cc(C[C@@H](NC(=O)C(C)(C)N)C(=O)NC2Cc3cccc(N4CCCC4=O)c3N(Cc3ccsc3)C2=O)c2ccccc21 (stereo partly drawn) [Example 34c, 2-amino-N-[(2R)-3-(1-ethyl-1H-indol-3-yl)-1-oxo-1-[2-oxo-8-(2-oxopyrrolidin-1-yl)-1-(thiophen-3-ylmethyl)-1,2,3,4-tetrahydroquinolin-3-ylamino]propan-2-yl]-2-methylpropanamide hydrochloride] | 0.02 nM
CC(C)(N)C(=O)N[C@H](Cc1cn(CCF)c2ccccc12)C(=O)NC1Cc2cccc(N3CCCC3=O)c2N(Cc2ccsc2)C1=O (stereo partly drawn) [Example 34d, 2-amino-N-[(2R)-3-[1-(2-fluoroethyl)-1H-indol-3-yl]-1-oxo-1-[2-oxo-8-(2-oxopyrrolidin-1-yl)-1-(thiophen-3-ylmethyl)-1,2,3,4-tetrahydroquinolin-3-ylamino]propan-2-yl]-2-methylpropanamide hydrochloride] | 0.22 nM
CCCn1cc(C[C@@H](NC(=O)C(C)(C)N)C(=O)NC2Cc3cccc(N4CCCC4=O)c3N(Cc3ccsc3)C2=O)c2ccccc21 (stereo partly drawn) [Example 34e, 2-amino-2-methyl-N-[(2R)-1-oxo-1-[2-oxo-8-(2-oxopyrrolidin-1-yl)-1-(thiophen-3-ylmethyl)-1,2,3,4-tetrahydroquinolin-3-ylamino]-3-(1-propyl-1H-indol-3-yl)propan-2-yl]propanamide hydrochloride] | 0.07 nM
CC(C)n1cc(C[C@@H](NC(=O)C(C)(C)N)C(=O)NC2Cc3cccc(N4CCCC4=O)c3N(Cc3ccsc3)C2=O)c2ccccc21 (stereo partly drawn) [Example 34f, 2-amino-N-[(2R)-3-(1-isopropyl-1H-indol-3-yl)-1-oxo-1-[2-oxo-8-(2-oxopyrrolidin-1-yl)-1-(thiophen-3-ylmethyl)-1,2,3,4-tetrahydroquinolin-3-ylamino]propan-2-yl]-2-methylpropanamide hydrochloride] | 1.13 nM
CC(C)C[C@@H](NC(=O)[C@@H](C)N)C(=O)NC1Cc2cccc(N3CCCC3=O)c2N(Cc2ccsc2)C1=O (stereo partly drawn) [Example 34g, (2R)-2-((R)-2-aminopropanamido)-4-methyl-N-[2-oxo-8-(2-oxopyrrolidin-1-yl)-1-(thiophen-3-ylmethyl)-1,2,3,4-tetrahydroquinolin-3-yl]pentanamide hydrochloride] | 2.75 nM
CC[C@@](C)(N)C(=O)N[C@H](CC(C)C)C(=O)NC1Cc2cccc(N3CCCC3=O)c2N(Cc2ccsc2)C1=O (stereo partly drawn) [Example 34h, (2R)-2-((R)-2-amino-2-methylbutanamido)-4-methyl-N-[2-oxo-8-(2-oxopyrrolidin-1-yl)-1-(thiophen-3-ylmethyl)-1,2,3,4-tetrahydroquinolin-3-yl]pentanamide hydrochloride] | 0.74 nM
CC[C@@](C)(N)C(=O)N[C@H](Cc1cn(C)c2ccccc12)C(=O)NC1Cc2cccc(N3CCCC3=O)c2N(Cc2ccsc2)C1=O (stereo partly drawn) [Example 34i, (2R)-2-amino-2-methyl-N-[(2R)-3-(1-methyl-1H-indol-3-yl)-1-oxo-1-[2-oxo-8-(2-oxopyrrolidin-1-yl)-1-(thiophen-3-ylmethyl)-1,2,3,4-tetrahydroquinolin-3-ylamino]propan-2-yl]butanamide hydrochloride] | 0.2 nM
CC(C)C[C@@H](NC(=O)C(C)(C)N)C(=O)NC1Cc2cccc(N3CCCC3=O)c2N(Cc2ccsc2)C1=O (stereo partly drawn) [Example 34k, (2R)-2-(2-amino-2-methylpropanamido)-4-methyl-N-[2-oxo-8-(2-oxopyrrolidin-1-yl)-1-(thiophen-3-ylmethyl)-1,2,3,4-tetrahydroquinolin-3-yl]pentanamide(R)-(−)-mandelate] | 0.47 nM
CC(C)C[C@@H](NC(=O)C(C)(C)N)C(=O)NC1Cc2cccc(N3CCCC3=O)c2N(Cc2ccsc2)C1=O (stereo partly drawn) [Example 34l, (2R)-2-(2-amino-2-methylpropanamido)-4-methyl-N-[2-oxo-8-(2-oxopyrrolidin-1-yl)-1-(thiophen-3-ylmethyl)-1,2,3,4-tetrahydroquinolin-3-yl]pentanamide(S)-(+)-mandelate] | 0.37 nM
CC(C)C[C@@H](NC(=O)C(C)(C)N)C(=O)NC1Cc2cccc(N3CCCC3=O)c2N(Cc2cccs2)C1=O (stereo partly drawn) [Example 34m, (2R)-2-(2-amino-2-methylpropanamido)-4-methyl-N-[2-oxo-8-(2-oxopyrrolidin-1-yl)-1-(thiophen-2-ylmethyl)-1,2,3,4-tetrahydroquinolin-3-yl]pentanamide hydrochloride] | 1.5 nM
CC(C)C[C@@H](NC(=O)C(C)(C)N)C(=O)NC1Cc2cccc(N3CCCC3=O)c2N(Cc2ccccc2)C1=O (stereo partly drawn) [Example 35, (2R)-2-(2-Amino-2-methylpropanamido)-N-[1-benzyl-2-oxo-8-(2-oxopyrrolidin-1-yl)-1,2,3,4-tetrahydroquinolin-3-yl]-4-methylpentanamide hydrochloride] | 0.9 nM
CC(C)C[C@@H](NC(=O)C(C)(C)N)C(=O)NC1Cc2cccc(N3CCCCC3=O)c2N(Cc2ccccc2)C1=O (stereo partly drawn) [Example 36, (2R)-2-(2-Amino-2-methylpropanamido)-N-[1-benzyl-2-oxo-8-(2-oxopiperidin-1-yl)-1,2,3,4-tetrahydroquinolin-3-yl]-4-methylpentanamide hydrochloride] | 1.1 nM
CC(C)C[C@@H](NC(=O)C(C)(C)N)C(=O)NC1Cc2cccc(N3C(=O)CCC3=O)c2N(Cc2ccccc2)C1=O (stereo partly drawn) [Example 37, (2R)-2-(2-Amino-2-methylpropanamido)-N-[1-benzyl-8-(2,5-dioxopyrrolidin-1-yl)-2-oxo-1,2,3,4-tetrahydroquinolin-3-yl]-4-methylpentanamide hydrochloride] | 1 nM
CC(C)(N)C(=O)N[C@H](Cc1c[nH]c2ccccc12)C(=O)NC1Cc2cccc(N3CCCC3=O)c2N(Cc2ccccc2)C1=O (stereo partly drawn) [Example 38, 2-Amino-N-[(2R)-1-[1-benzyl-2-oxo-8-(2-oxopyrrolidin-1-yl)-1,2,3,4-tetrahydroquinolin-3-ylamino]-3-(1H-indol-3-yl)-1-oxopropan-2-yl]-2-methylpropanamide hydrochloride] | 0.1 nM
CCN(CC)c1cccc2c1N(Cc1ccccn1)C(=O)C(NC(=O)[C@@H](CC(C)C)NC(=O)[C@H](N)Cc1ccc(O)cc1)C2 (stereo partly drawn) [Example 39, (2R)-2-((R)-2-Amino-3-(4-hydroxyphenyl)propanamido)-N-(8-(diethylamino)-2-oxo-1-(pyridin-2-ylmethyl)-1,2,3,4-tetrahydroquinolin-3-yl)-4-methylpentanamide hydrochloride] | 12.9 nM
CC(=O)Nc1cccc2c1N(Cc1ccccn1)C(=O)C(NC(=O)[C@@H](CC(C)C)NC(=O)C(C)(C)N)C2 (stereo partly drawn) [Example 40, (2R)—N-(8-Acetamido-2-oxo-1-(pyridin-2-ylmethyl)-1,2,3,4-tetrahydroquinolin-3-yl)-2-(2-amino-2-methylpropanamido)-4-methylpentanamide] | 80 nM
CN(C)c1cccc2c1N(Cc1ccccn1)C(=O)C(NC(=O)[C@H](NC(=O)C(C)(C)N)c1ccccc1)C2 (stereo partly drawn) [Example 41, 2-Amino-N-((1R)-2-(8-(dimethylamino)-2-oxo-1-(pyridin-2-ylmethyl)-1,2,3,4-tetrahydroquinolin-3-ylamino)-2-oxo-1-phenylethyl)-2-methylpropanamide hydrochloride] | 11.3 nM

— patent US8501772B2, “3,8-diaminotetrahydroquinoline derivative” (Zeria Pharmaceutical Co., Ltd., priority 2008, dated 2013)
